Test results: ChEMBL document CHEMBL1134239, “Synthesis and antitumor activity of novel paclitaxel-chlorambucil hybrids” (Bioorg Med Chem Lett, 2001)

What was measured:
[1] = tested on: HCT-116; assay: Compound was tested for cytotoxicity against human colon tumor cell line (HCT116); type: functional, cell-based
[2] = tested on: M109; assay: Compound was tested in vivo against M109 using Madison murine lung carcinoma (M109) tumor model; type: functional, Mus musculus
[3] = biological target: Tubulin alpha chain (Sus scrofa) (UniProt P02550); assay: Compound was tested in vitro for inhibition of tubulin polymerization, expressed as ratio to that obtained for paclitaxel; type: functional
Tubulin alpha chain (Sus scrofa), sequence (P02550 whole entry, looked up): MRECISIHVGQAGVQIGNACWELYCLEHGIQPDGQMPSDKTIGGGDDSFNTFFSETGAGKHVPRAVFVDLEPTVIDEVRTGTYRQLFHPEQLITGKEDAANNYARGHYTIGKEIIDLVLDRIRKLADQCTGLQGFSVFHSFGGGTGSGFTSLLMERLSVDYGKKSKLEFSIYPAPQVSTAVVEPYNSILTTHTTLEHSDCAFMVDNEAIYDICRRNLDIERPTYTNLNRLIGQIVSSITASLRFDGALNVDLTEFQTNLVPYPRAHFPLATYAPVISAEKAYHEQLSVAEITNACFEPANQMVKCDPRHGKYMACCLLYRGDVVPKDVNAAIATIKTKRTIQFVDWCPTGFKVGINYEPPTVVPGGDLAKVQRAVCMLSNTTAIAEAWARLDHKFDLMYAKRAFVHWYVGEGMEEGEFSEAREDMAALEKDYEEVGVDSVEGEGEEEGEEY

| SMILES | IC50 [1] [µM] | T/C [2] [%] | Tubulin polymerization [3] |
| --- | --- | --- | --- |
| CC(=O)O[C@H]1C(=O)[C@@]2(C)C([C@H](OC(=O)c3ccccc3)[C@]3(O)C[C@H](OC(=O)[C@H](O)[C@@H](NC(=O)c4ccccc4)c4ccccc4)C(C)=C1C3(C)C)[C@]1(OC(C)=O)CO[C@@H]1C[C@@H]2OC(=O)CCCc1ccc(N(CCCl)CCCl)cc1 (some centres undefined) | 0.161 | 127 | 53 |
| CC(=O)O[C@H]1C(=O)[C@@]2(C)C([C@H](OC(=O)c3ccccc3)[C@]3(O)C[C@H](OC(=O)[C@H](O)[C@@H](NC(=O)c4ccccc4)c4ccccc4)C(C)=C1C3(C)C)[C@]1(OC(C)=O)CO[C@@H]1C[C@@H]2OCOC(=O)N(CCOC(=O)CCCc1ccc(N(CCCl)CCCl)cc1)CCOC(=O)CCCc1ccc(N(CCCl)CCCl)cc1 (some centres undefined) | 0.024 | 224 | 70 |
| CC(=O)O[C@H]1C(=O)[C@@]2(C)C([C@H](OC(=O)c3ccccc3)[C@]3(O)C[C@H](OC(=O)[C@H](O)[C@@H](NC(=O)c4ccccc4)c4ccccc4)C(C)=C1C3(C)C)[C@]1(OC(C)=O)CO[C@@H]1C[C@@H]2OCOC(=O)CCCc1ccc(N(CCCl)CCCl)cc1 (some centres undefined) | 0.0046 | 155 | 62 |
| CC(=O)OCCN(CCOC(C)=O)C(=O)OCO[C@H]1C[C@H]2OC[C@@]2(OC(C)=O)C2[C@H](OC(=O)c3ccccc3)[C@]3(O)C[C@H](OC(=O)[C@H](O)[C@@H](NC(=O)c4ccccc4)c4ccccc4)C(C)=C([C@@H](OC(C)=O)C(=O)[C@@]21C)C3(C)C (some centres undefined) | 0.0039 | 17 | 6.5 |
| CC(=O)O[C@H]1C(=O)[C@@]2(C)[C@H]([C@H](OC(=O)c3ccccc3)[C@]3(O)C[C@H](OC(=O)[C@H](O)[C@@H](NC(=O)c4ccccc4)c4ccccc4)C(C)=C1C3(C)C)[C@]1(OC(C)=O)CO[C@@H]1C[C@@H]2O [PACLITAXEL] |  | 246 | 1 |
